Data from US11976064B2, “Toll-like receptor agonists” (Pfizer Inc., priority 2019, dated 2024).

Biological target: T1, human toll like receptor 7 (hTLR7) (Homo sapiens, UniProt Q9NYK1)
T1 construct: host or cells: HEK293 (HEK-Blue hTLR7)
T1 sequence (Q9NYK1 27-1049): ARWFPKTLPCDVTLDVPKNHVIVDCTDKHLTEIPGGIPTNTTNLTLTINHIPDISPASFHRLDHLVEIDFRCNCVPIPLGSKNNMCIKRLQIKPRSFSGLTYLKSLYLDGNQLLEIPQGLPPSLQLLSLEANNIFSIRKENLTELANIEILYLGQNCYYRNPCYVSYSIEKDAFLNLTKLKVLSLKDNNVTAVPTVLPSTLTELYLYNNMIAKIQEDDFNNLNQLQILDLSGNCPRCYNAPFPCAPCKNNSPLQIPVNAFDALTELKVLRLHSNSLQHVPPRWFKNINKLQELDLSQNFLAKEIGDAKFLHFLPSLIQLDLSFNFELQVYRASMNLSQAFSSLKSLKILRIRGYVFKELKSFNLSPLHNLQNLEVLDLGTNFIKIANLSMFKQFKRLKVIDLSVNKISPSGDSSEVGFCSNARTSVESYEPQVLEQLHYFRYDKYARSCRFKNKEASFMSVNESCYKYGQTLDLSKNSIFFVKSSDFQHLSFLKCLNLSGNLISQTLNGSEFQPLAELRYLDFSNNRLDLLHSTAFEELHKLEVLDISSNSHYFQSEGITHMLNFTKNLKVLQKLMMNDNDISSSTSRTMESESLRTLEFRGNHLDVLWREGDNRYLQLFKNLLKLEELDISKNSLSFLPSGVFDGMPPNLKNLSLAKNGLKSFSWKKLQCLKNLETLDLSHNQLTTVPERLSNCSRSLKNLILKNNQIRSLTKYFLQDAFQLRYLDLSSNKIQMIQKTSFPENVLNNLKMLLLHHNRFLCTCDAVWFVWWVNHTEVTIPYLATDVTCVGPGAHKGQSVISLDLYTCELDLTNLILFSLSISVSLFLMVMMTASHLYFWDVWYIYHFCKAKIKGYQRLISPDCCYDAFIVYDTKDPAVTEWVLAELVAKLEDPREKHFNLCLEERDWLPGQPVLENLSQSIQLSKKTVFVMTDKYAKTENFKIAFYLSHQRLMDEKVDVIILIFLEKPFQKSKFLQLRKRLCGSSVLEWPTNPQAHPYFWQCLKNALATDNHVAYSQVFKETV
Test: hTLR7 cell functional assay (HEK-Blue hTLR7 SEAP reporter)
Assay type: cell-based
Conditions: HEK293 cells stably overexpressing hTLR7, SEAP reporter; geometric mean when tested more than once
Description: The Examples described were tested for biological activity in functional cellular assays using HEK293 cells stably overexpressing human TLR7 or TLR8. The assays tested for the ability of each Example to stimulate secretion of interferon alpha (IFNα) in human primary blood mono nuclear cells (PBMC).
To determine the ability of each Example to activate the human toll like receptor 7 (hTLR7) or human toll like receptor 8 (hTLR8), cell-based reporter systems were utilized. HEK293 cells stably overexpressing either hTLR7 or hTLR8 along with a reporter gene containing an optimized secreted embryonic alkaline phosphatase gene (SEAP), under the control of the IFN-b minimal promoter fused to five NF-κB and AP-1-binding sites, were obtained from Invivogen (HEK-Blue™ hTLR7, cat #Hkb-ht1r7; HEK-Blue™ hTLR8, cat #Hkb-ht1r8). Stimulation of hTLR7 or hTLR8 in these cells activates NF-κB and AP-1 and induces the production of SEAP which can be quantified using an alkaline phosphatase detection reagent.
Cells were maintained in Dulbecco's Modified Eagle Media (DMEM) (containing Fetal Bovine Serum (FBS) heat inactivated (10%), Glutamax (2 mM), Penicillin/Streptomycin, Blasticidin (10 μg/ml), Zeocin (100 μg/ml) and Normocin (100 μg/ml)). On day one of the assay, Examples were prepared using 11-point half-log serial dilutions from a 10mM DMSO stock solution and 50 nl was spotted into 384-well Viewplates (PerkinElmer, cat #6007480). Positive control TLR7/8 agonist and negative control (DMSO, no Example) were also spotted within the assay plate and were used to determine percent effect during the analysis process. After resuspension in DMEM assay media containing FBS heat inactivated (10%), Glutamax (2 mM) and Penicillin/Streptomycin, 10,000 cells/20 μl/well were added to previously prepared plates. Plates were incubated overnight (16-20 hrs) at 37° C. in a 5% CO2 environment. Prewetted Microclime lids (Labcyte, LLS-0310) were used to prevent evaporation. On day two of the assay, QUANTI-Blue™ detection reagent was prepared by reconstituting QUANTI-Blue™ powder (InvivoGen, Rep-qb1) with 100 ml of sterile water and allowed to equilibrate to 37° C. for 15 minutes. 20 μl of QUANTI-Blue™ detection reagent was added to each well and plates were incubated at room temperature for 180 min. At the end of the incubation, plates were read on an Envision (Perkin Elmer) plate reader capturing absorbance at 650 nm.
Using Positive (TLR7/8 agonist) and Negative (DMSO) controls, the percent (%) effect was calculated for each Example using the following equation: effect=100−[100*{(Example−Positive Control)/(Negative Control−Positive Control)}]
The % effect at each concentration of each Example was calculated utilizing the ABase software suite (IBDS) and was relative to the amount of SEAP produced in the positive and negative control wells contained within each assay plate. The concentrations and % effect values for each Example were fit using a 4-parameter logistic model in ABase and the concentration of each Example that produced 50% response (EC50) was calculated.

Compound	EC50
CCOCc1nc2c(N)nc(C)c(C)c2n1CC(C)(CO)COC (single isomer, unassigned) [Example 6, 3-(4-amino-2-(ethoxymethyl)-6,7-dimethyl-1H-imidazo[4,5-c]pyridin-1-yl)-2-(methoxymethyl)-2-methylpropan-1-ol]	49 nM
CCOCc1nc2c(N)nc(C)c(C)c2n1CC(C)(CO)COC (single isomer, unassigned) [Example 7, 3-(4-amino-2-(ethoxymethyl)-6,7-dimethyl-1H-imidazo[4,5-c]pyridin-1-yl)-2-(methoxymethyl)-2-methylpropan-1-ol]	103 nM
CCOCc1nc2c(N)nc(C)c(C)c2n1CC(CO)CO [Example 1, 2-((4-amino-2-(ethoxymethyl)-6,7-dimethyl-1H-imidazo[4,5-c]pyridin-1-yl)methyl)propane-1,3-diol]	644 nM
CCOCc1nc2c(N)nc(C)c(C)c2n1CC(C)(CO)CO [Example 2, 2-((4-amino-2-(ethoxymethyl)-6,7-dimethyl-1H-imidazo[4,5-c]pyridin-1-yl)methyl)-2-methylpropane-1,3-diol]	54 nM
CCOCc1nc2c(N)nc3ccccc3c2n1CC(C)(CO)CO [Example 3, 2-((4-amino-2-(ethoxymethyl)-1H-imidazo[4,5-c]quinolin-1-yl)methyl)-2-methylpropane-1,3-diol]	29 nM
Cc1nc(N)c2nc(CC(F)(F)F)n(CC(C)(CO)CO)c2c1C [Example 8, 2-((4-amino-6,7-dimethyl-2-(2,2,2-trifluoroethyl)-1H-imidazo[4,5-c]pyridin-1-yl)methyl)-2-methylpropane-1,3-diol]	78 nM
CCOCc1nc2c(N)nc(C)c(C)c2n1CC(CC)(CO)CO [Example 9, 2-((4-amino-2-(ethoxymethyl)-6,7-dimethyl-1H-imidazo[4,5-c]pyridin-1-yl)methyl)-2-ethylpropane-1,3-diol]	27 nM
CCCCc1nc2c(N)nc3ccccc3c2n1CC(C)(CO)CO [Example 10, 2-((4-amino-2-butyl-1H-imidazo[4,5-c]quinolin-1-yl)methyl)-2-methylpropane-1,3-diol]	4 nM
CCCCc1nc2c(N)nc3c(c2n1CC(C)(CO)CO)CCCC3 [Example 13, 2-((4-amino-2-butyl-6,7,8,9-tetrahydro-1H-imidazo[4,5-c]quinolin-1-yl)methyl)-2-methylpropane-1,3-diol]	9 nM
CCCCc1nc2c(N)nc3c(c2n1CC(C)(CO)CO)CCC3 [Example 14, 2-((4-amino-2-butyl-7,8-dihydrocyclopenta[b]imidazo[4,5-d]pyridin-1(6H)-yl)methyl)-2-methylpropane-1,3-diol]	14 nM
CCc1nc2c(N)nc3ccccc3c2n1CC(C)(CO)CO [Example 15, 2-((4-amino-2-ethyl-1H-imidazo[4,5-c]quinolin-1-yl)methyl)-2-methylpropane-1,3-diol]	75 nM
CCCc1nc2c(N)nc3ccccc3c2n1CC(C)(CO)CO [Example 16, 2-((4-amino-2-propyl-1H-imidazo[4,5-c]quinolin-1-yl)methyl)-2-methylpropane-1,3-diol]	19 nM
